Patent US20170205426A1, “RAPID MASS SPECTROMETRY METHODS FOR ANTIMICROBIAL SUSCEPTIBILITY TESTING USING TOP-DOWN MASS SPECTROMETRY” (priority 2016, published 2017)

How the values were obtained:
CTX-M15 = assay: Bottom-up mass spectrometry sequence coverage of CTX-M15 in K. pneumoniae cultures induced with ertapenem; assay type: cell-based, Klebsiella pneumoniae; details: for CTX-M15 Sequence Coverage: induced with 0.5 mM ertapenem
Experimental: (§1) In some embodiments, a sample of the microbial culture or biological sample is exposed to conditions that induce antimicrobial resistance in the microorganisms prior to testing. In other embodiments, a sample of the microbial culture or biological sample is tested without intentionally inducing antimicrobial resistance in the microorganisms. In certain embodiments, many resistance mechanisms may not have to be induced in order to detect the target proteins of interest. For example, we have observed that the production of PBP2a from MRSA samples varies in its baseline expression without induction. In examining expression of carbapenem-resistant Enterobacteriaceae (CRE)-related resistances, several strains of Klebsiella pneumoniae that contained different combinations of the resistance marker beta-lactamase were tested to determine the effect on detection for induced and non-induced samples. Table 1 lists various resistant and susceptible strains of K. pneumoniae which were tested with 0.5 mM of ertapenem as an inducer. In these experiments, bottom-up mass spectrometry was used to measure sequence coverage of two representative beta-lactamases, KPC-2 and CTX-M15. The percent sequence coverage observed is an approximate measure of the amount of a given protein present in any given extract. The higher the percent sequence coverage observed, the higher the level of that given protein in an extract.

KPC-2 = assay: Bottom-up mass spectrometry sequence coverage of KPC-2 in K. pneumoniae cultures induced with ertapenem; assay type: cell-based, Klebsiella pneumoniae; details: for KPC-2 Sequence Coverage: induced with 0.5 mM ertapenem
Experimental: as §1

[1] = variety of K. pneumoniae strains, 0.5 mM ertapenem as inducer

## C[C@@H](O)[C@H]1C(=O)N2C(C(=O)O)=C(S[C@@H]3CN[C@H](C(=O)Nc4cccc(C(=O)O)c4)C3)[C@H](C)[C@H]12 [ertapenem]
CTX-M15; strain 13883 (Susceptible)
  CTX-M15 Sequence Coverage: not detected
CTX-M15; strain BAA-1903 (Resistant)
  CTX-M15 Sequence Coverage: not detected
CTX-M15; strain BAA-1905 (Resistant)
  CTX-M15 Sequence Coverage: not detected
CTX-M15; strain BAA-2473 (Resistant)
  CTX-M15 Sequence Coverage: 70% ± 0%
CTX-M15; strain BAA-2578 (Resistant)
  CTX-M15 Sequence Coverage: 60% ± 2%
CTX-M15; [1]
  percent sequence coverage of CTX-M15, induced versus non-induced: the same regardless of induction
KPC-2; strain 13883 (Susceptible)
  KPC-2 Sequence Coverage: not detected
KPC-2; strain BAA-1903 (Resistant)
  KPC-2 Sequence Coverage: 73% ± 0%
KPC-2; strain BAA-1905 (Resistant)
  KPC-2 Sequence Coverage: 85% ± 5%
KPC-2; strain BAA-2473 (Resistant)
  KPC-2 Sequence Coverage: not detected
KPC-2; strain BAA-2578 (Resistant)
  KPC-2 Sequence Coverage: not detected
KPC-2; [1]
  percent sequence coverage of KPC-2, induced versus non-induced: the same regardless of induction
